{
  "source": "patent US20260294933A1",
  "about": "“USE OF COMPOUND IN PREVENTION OR TREATMENT OF RADIATION-INDUCED BRAIN INJURY” (GUANGZHOU CELLPROTEK PHARMACEUTICAL CO., LTD, priority 2023, published 2026)",
  "key": {"[1]": {"system": "CC1 positive oligodendrocytes", "assay": "CC1 immunofluorescence staining, mature oligodendrocytes in the thalamus of the lesion", "assay_type": "in vivo, C57BL/6 mice", "text": "(§1) Pannel A: Immunofluorescence staining of CC1 and MAG in the thalamus of the brain lesion, with a white ruler indicating […]. Pannel B: Counting CC1 positive cells in Pannel A, i.e., randomly selecting three fields of view in the brain slice injury lesion area and using Image J software to count CC1 positive cells in the selected fields as the number of CC1 positive cells per unit area, and taking the average value. Pannel C: Statistical analysis of MAG immunofluorescence intensity in Pannel A, i.e., randomly selecting three fields of view in the brain slice injury lesion area and using Image J software to quantify the fluorescence signal intensity of MAG in the selected fields as the fluorescence intensity of MAG per unit pixel area, and taking the average value. **** represents P<0.0001, n=5.\n(§2) The coordinates of the irradiation center positioning point were: 2 mm behind the anterior fontanelle (AP), 2 mm left of the midline (L), and 2 mm below the skull dura mater (dorsal ventral DV).\n(§3) Immunofluorescence Staining of GFAP, CC1, and MAG Proteins in Brain Slices"}, "MAG": {"system": "MAG", "assay": "MAG immunofluorescence intensity in the thalamus of the lesion", "assay_type": "in vivo, C57BL/6 mice", "text": "as §1, §2, §3"}, "[2]": {"system": "gamma knife irradiation induced focal radiation-induced brain injury (brain lesions)", "assay": "Brain lesion volume by MRI, gamma knife irradiation induced focal radiation-induced brain injury in C57BL/6 mice", "assay_type": "in vivo", "description": "as §2\nQuantitative Analysis of Brain Lesion Volume Using Magnetic Resonance imaging (MRI)\nPrior to detection, each mouse was injected with 200 μl of contrast agent solution at a concentration of approximately 48 mg/ml."}, "GFAP positive astrocytes": {"system": "GFAP positive astrocytes", "assay": "GFAP immunofluorescence staining, activation of astrocytes in the thalamus of the lesion", "assay_type": "in vivo, C57BL/6 mice", "text": "FIG. 3: YC-6 inhibited the activation of astrocytes after radiation-induced brain injury. Pannel A: GFAP immunofluorescence staining in the thalamus of the brain lesion, with a white ruler indicating […]. Pannel B: Counting GFAP positive cells in Pannel A, i.e., randomly selecting three fields of view in the brain slice injury lesion area and using Image J software to count GFAP positive cells in the selected fields as the number of GFAP positive cells per unit area, and taking the average value. **** represents P<0.0001, n=5.\nas §2, §3"}, "[3]": {"system": "radiation-induced brain injury", "settings": "patients treated with bevacizumab; cited from earlier work"}, "[4]": {"system": "blood-brain barrier and microvessels", "settings": "animals; cited from earlier work"}, "[5]": {"settings": "YC-6 administration for 8 weeks"}},
  "note": "“Also recorded” adds a separate entry of the source.",
  "data": [
    {"molecule": "C[C@@]12CCCC1C1C[C@@H](O)[C@@]3(O)C[C@@H](O)CC[C@]3(C)C1CC2", "note": "(stereo partly drawn) [YC-6, 5α-androst-3β,5,6β-triol]", "values": [
      {"measurement": "Number of mature oligodendrocytes (CC1 positive)", "setting": "[1]; 60 mg/kg/d for 8 weeks, 8 weeks after gamma knife radiation, Mean ± SEM, n=5, P < 0.0001 vs RBI + Saline (200.60 ± 21.47), Control + Saline 1608.00 ± 47.92", "value": "506.40 ± 30.48", "unit": "Oligodendrocytes/mm^2"},
      {"measurement": "reduction of oligodendrocytes (in words)", "setting": "[1]; [5]", "value": "significantly inhibited the reduction of oligodendrocytes"},
      {"measurement": "MAG fluorescence signal intensity", "setting": "MAG; 60 mg/kg/d for 8 weeks, 8 weeks after gamma knife radiation, Mean ± SEM, n=5, P < 0.0001 vs RBI + Saline (0.31 ± 0.018), Control + Saline 1.04 ± 0.047", "value": "0.44 ± 0.018"},
      {"measurement": "MAG level (in words)", "setting": "MAG; [5]", "value": "restored MAG level"},
      {"measurement": "volume of brain lesions (in words)", "setting": "[2]; 60 mg/kg/d for 2 weeks, followed by discontinuation until week 8", "value": "significantly reduced the volume of brain lesions; also recorded: significantly reducing lesion volume"},
      {"measurement": "volume of brain lesions (in words)", "setting": "[2]; full 8-week administration, compared to 2-week administration", "value": "showed a trend towards further reducing the volume of brain lesions; also recorded: showed a better trend in reducing lesion volume compared to short-term administration"},
      {"measurement": "Number of astrocytes (GFAP positive)", "setting": "GFAP positive astrocytes; 60 mg/kg/d for 8 weeks, 8 weeks after gamma knife radiation, Mean ± SEM, n=5, P < 0.0001 vs RBI + Saline (558.20 ± 10.07), Control + Saline 57.80 ± 2.69", "value": "357.00 ± 10.61", "unit": "Astrocytes/mm^2"},
      {"measurement": "activation of astrocytes (in words)", "setting": "GFAP positive astrocytes; [5]", "value": "significantly inhibited the activation of astrocytes"}
    ]},
    {"molecule": "bevacizumab: bevacizumab, used in a randomized double-blind placebo-controlled study in 2011", "values": [
      {"measurement": "neurological function", "setting": "[3]", "value": "significant improvement in neurological function"},
      {"measurement": "reduction in brain injury lesions", "setting": "[3]", "value": "varying degrees of reduction in brain injury lesions"}
    ]},
    {"molecule": "mouse nerve growth factor for injection: mouse nerve growth factor for injection (protein, UniProt P01139 122-241, looked up) Beta-nerve growth factor: SSTHPVFHMGEFSVCDSVSVWVGDKTTATDIKGKEVTVLAEVNINNSVFRQYFFETKCRASNPVESGCRGIDSKHWNSYCTTTHTFVKALTTDEKQAAWRFIRIDTACVCVLSRKATRRG", "values": [
      {"measurement": "damage to the blood-brain barrier and repair of microvessels", "setting": "[4]", "value": "can alleviate damage to the blood-brain barrier and repair microvessels in animals"}
    ]}
  ]
}
